The values that follow come from paper PMC3427316 (PLoS ONE, 2012).

For assay [1], the system named is NA with I223R mutation of H1N1pdm09 virus. The assay is classed as biochemical, influenza A(H1N1)pdm09 virus.
Assay [2] deals with H1N1pdm09 virus resistant to oseltamivir. Particulars: zanamivir inhaled (n = 8), intravenous (n = 5) or nebulised (n = 1); cited from earlier work.

Each structure is given as a SMILES string.

Regarding `CCC(CC)O[C@@H]1C=C(C(=O)O)C[C@H](N)[C@H]1NC(C)=O` [OC, oseltamivir carboxylate], the “reduction in susceptibility associated with the I223R mutation” value in assay [1] lay within 9 to 18 fold. As to `CC(=O)N[C@H]1[C@H]([C@H](O)[C@H](O)CO)OC(C(=O)O)=C[C@@H]1N=C(N)N` [ZAN, zanamivir], in assay [2], the “patients with reduced viral shedding or recovery” value is 12/14.
